Conditions: for surface tension liquid-gas: Maximal bubble pressure; for electrical conductivity / viscosity / mass density: 101.33 kPa, Liquid; for electrical conductivity: Alternating current cell with electrodes; for viscosity: Concentric cylinders viscometry; for mass density: Vibrating tube method

CCCCn1cc[n+](C)c1.O=C([O-])O [1-butyl-3-methylimidazolium hydrogen carbonate]
Conditions	electrical conductivity [S/m]	mass density [kg/m3]	surface tension liquid-gas [mN/m]	viscosity [mPa·s]
288.15 K	0.274	1164.1	34.9	122.9
293.15 K	0.322	1160.5	34.4	94.8
298.15 K	0.376	1157.08	34	73.73
303.15 K	0.439	1153.64	33.5	57.64
308.15 K	0.496	1150	33.1	45.33
313.15 K	0.557	1146.51	32.6	35.86
318.15 K	0.622	1142.95	32.2	28.85
323.15 K	0.689	1139.45	31.7	22.93
328.15 K	0.755	1136.1	31.2	18.54
333.15 K	0.823	1132.53	30.8	14.81
338.15 K	0.893	1128.92	30.4	11.88
343.15 K	0.963	1125.52	29.9	10.04

CCCCn1cc[n+](C)c1.O=P([O-])(O)O [1-butyl-3-methylimidazolium dihydrogen phosphate]
Conditions	electrical conductivity [S/m]	mass density [kg/m3]	surface tension liquid-gas [mN/m]	viscosity [mPa·s]
288.15 K	0.303	1183.24	44.2	198.7
293.15 K	0.359	1179.91	43.9	159
298.15 K	0.419	1176.54	43.6	125.6
303.15 K	0.483	1173.18	43.2	101.1
308.15 K	0.555	1169.69	42.9	80.78
313.15 K	0.628	1166.3	42.6	65.21
318.15 K	0.707	1162.8	42.3	53.62
323.15 K	0.788	1159.53	42	43.67
328.15 K	0.868	1156.13	41.7	36.75
333.15 K	0.965	1152.67	41.4	29.77
338.15 K	1.06	1149.36	41.1	25.21
343.15 K	1.16	1146.03	40.8	20.96

CCCn1cc[n+](C)c1C.O=S(=O)([O-])O [2,3-dimethyl-1-propylimidazolium hydrogen sulfate]
Conditions	electrical conductivity [S/m]	mass density [kg/m3]	surface tension liquid-gas [mN/m]	viscosity [mPa·s]
288.15 K	–	1239.79	47.7	500.4
293.15 K	–	1236.23	47.4	362.3
298.15 K	0.123	1232.82	47.2	263.7
303.15 K	0.162	1229.24	46.9	194.2
308.15 K	0.211	1225.73	46.6	142.2
313.15 K	0.267	1222.13	46.3	107
318.15 K	0.333	1218.82	46.1	81.27
323.15 K	0.409	1215.29	45.8	62.04
328.15 K	0.496	1211.74	45.5	47.83
333.15 K	0.6	1208.35	45.2	35.71
338.15 K	0.711	1204.81	44.9	27.47
343.15 K	0.832	1201.46	44.7	21.17

CCCCn1cc[n+](C)c1C.O=S(=O)([O-])O [1-butyl-2,3-dimethylimidazolium hydrogen sulfate]
Conditions	electrical conductivity [S/m]	mass density [kg/m3]	surface tension liquid-gas [mN/m]	viscosity [mPa·s]
288.15 K	–	1217.09	45.3	628.5
293.15 K	–	1213.74	45	469.7
298.15 K	0.1	1210.61	44.8	355.2
303.15 K	0.135	1207.35	44.5	271.3
308.15 K	0.179	1203.89	44.2	206.3
313.15 K	0.231	1200.63	43.9	157.2
318.15 K	0.292	1197.49	43.7	121.8
323.15 K	0.36	1194.03	43.4	95.86
328.15 K	0.441	1190.8	43.1	74.49
333.15 K	0.531	1187.57	42.8	60.7
338.15 K	0.631	1184.29	42.6	46.52
343.15 K	0.739	1180.99	42.3	38.13

CCCCCn1cc[n+](C)c1C.O=S(=O)([O-])O [2,3-dimethyl-1-pentylimidazolium hydrogen sulfate]
Conditions	electrical conductivity [S/m]	mass density [kg/m3]	surface tension liquid-gas [mN/m]	viscosity [mPa·s]
288.15 K	–	1196.47	42.5	772.4
293.15 K	–	1193.23	42.2	597
298.15 K	0.075	1190.07	42	462.8
303.15 K	0.105	1186.89	41.7	358.7
308.15 K	0.145	1183.89	41.5	281.1
313.15 K	0.197	1180.69	41.2	224.2
318.15 K	0.257	1177.69	40.9	176
323.15 K	0.324	1174.61	40.7	140.1
328.15 K	0.399	1171.29	40.4	113
333.15 K	0.485	1168.33	40.1	90
338.15 K	0.573	1165.21	39.9	73.77
343.15 K	0.675	1162.18	39.6	57.54

CCC[n+]1ccn(C)c1.O=P([O-])(O)O [1-methyl-3-propylimidazolium dihydrogen phosphate]
Conditions	electrical conductivity [S/m]	mass density [kg/m3]	surface tension liquid-gas [mN/m]	viscosity [mPa·s]
288.15 K	0.469	1202.41	46.4	99.38
293.15 K	0.536	1198.96	46.1	78.41
298.15 K	0.613	1195.45	45.8	61.92
303.15 K	0.693	1191.95	45.5	49.58
308.15 K	0.785	1188.45	45.2	39.3
313.15 K	0.879	1184.95	44.9	32.16
318.15 K	0.977	1181.43	44.6	25.81
323.15 K	1.08	1177.89	44.3	21.02
328.15 K	1.19	1174.36	44	17.17
333.15 K	1.3	1170.8	43.7	13.85
338.15 K	1.41	1167.24	43.4	11.43
343.15 K	1.55	1163.66	43.1	10.04

CCCCCn1cc[n+](C)c1.O=C([O-])O [3-methyl-1-pentylimidazolium hydrogen carbonate]
Conditions	electrical conductivity [S/m]	mass density [kg/m3]	surface tension liquid-gas [mN/m]	viscosity [mPa·s]
288.15 K	0.143	1148.91	31.9	179.6
293.15 K	0.193	1145.21	31.4	138.9
298.15 K	0.248	1141.79	30.9	108.6
303.15 K	0.305	1138.28	30.4	85.09
308.15 K	0.367	1134.77	29.9	66.77
313.15 K	0.428	1131.33	29.4	53.12
318.15 K	0.489	1127.75	29	42.53
323.15 K	0.553	1124.28	28.5	33.29
328.15 K	0.612	1120.73	28	26.92
333.15 K	0.671	1117.27	27.5	21.42
338.15 K	0.733	1113.75	26.9	17.65
343.15 K	0.794	1110.3	26.5	14.71

Source: the NIST ThermoML archive (doi:10.1021/acs.jced.5b00860)
